Measurements from PMC9599717, “The Multicellular Effects of VDAC1 N-Terminal-Derived Peptide” (Biomolecules, 2022).

Assays:
[1] = test system: U-87MG cells; assay: Cell morphology / cell size by light microscopy; format: cell-based, human; settings: 16 h treatment
Procedure: Cells were seeded in a 6-well plates, treated with D-Δ(1-18)N-Ter-Antp peptide for 24 h, and monitored with the Holomonitor live cell imaging system (Holographic Imaging, Lund, Sweden) for 24 h at 37 °C and 5% CO2 or with a microscope (LX2-KSP; Olympus, Shinjuku, Tokyo, Japan), with images captured by a CCD camera.
Figure 2 D-Δ(1-18)N-Ter-Antp-induced changes in cell morphology and cell membrane permeability. (A,B) U-87MG cells were treated with the indicated concentrations of D-Δ(1-18)N-Ter-Antp peptide for 16 h, and cell morphology was monitored by light microscope (A). Quantification of cell size (B). (C,D) U-87MG cells were untreated or treated with 10 μM of D-Δ(1-18)N-Ter-Antp peptide or N-TerΔ(21-26)-Antp for 24 h, and cell morphology was monitored by light microscope (C). Quantification of cell size (D). (E,F) Cells were stained with anti-vinculin antibodies, followed by secondary anti-mouse-cy3 antibodies. Scale bars are 20 μm. White arrows point to focal adhesion (E). Quantification of vinculin staining intensity (F). (G) D-Δ(1-18)N-Ter-Antp-induced cell membrane permeability changes in HeLa cells. Cells were treated with D-Δ(1-18)N-Ter-Antp peptide (10 µM) for 6 h and subjected to FM4-64 dye staining. Yellow arrows point to apoptotic cells with apoptotic bodies. (H) Quantification of fluorescence intensity of FM4-64. * p < 0.05, *** p < 0.001, **** p < 0.0001 (n = 3). […]

[2] = test system: U-87MG cells; assay: Cell migration / wound-healing assay; format: cell-based, human; settings: 20 μM peptide, 24 h, untreated cells 64%
Procedure: color was read in a spectrophotometer at 680 nm. A standard curve was obtained using D-glucose (0–20 µg) subjected to anthrone in a sulfuric acid treatment, as described above.
Lysosomal vacuolation observed with acridine orange (AO) staining
U-87MG cells were treated with D-Δ(1-18)N-Ter-Antp peptide in serum-free DMEM media for 6 h at 37℃, incubated with acridine orange (1 μg/ml) for 15 min, visualized by fluorescence microscopy (Olympus LX2 - KSP, Tokyo, Japan), and images were captured with a CCD camera. About 200 cells were counted for each […]
Cell migration assay/wound-healing assay
U-87MG cells were seeded in 12-well plates and cultured. When reaching around 90% confluence, a straight scratch was mechanically made with a sterile 10-µl pipette tip. The cells were treated with various concentrations of D-Δ(1-18)N-Ter-Antp peptide in serum-free DMEM media for the indicated time points. The images of the wounds were captured at different time points using a digital camera mounted on a microscope to follow the position of the migrating front at defined times. […]
Summary of the peptide concentrations (µM) required for half-maximal cell death activity (IC50) in various cancer cell lines. […] Cell death was determined by PI staining and FACS analysis. […]

With “19-FTKGYGFGL-26- RQIKIWFQNRRMKWKK [D-Δ(1-18)N-Ter-Antp]” the “Enlarged cell area relative to untreated cells” value [1] was “up to 3 fold” and the “Gap closed in wound-healing assay” value [2] was 17%.
